Reference: US6514997B2, “Antipicornaviral compounds and compositions, their pharmaceutical uses, and materials for their synthesis” (Agouron Pharmaceuticals, Inc., priority 1999, dated 2003)
Read-outs that look alike come from different tables or passages of the source.

Columns and labels:
HRV-14 = test: Antirhinoviral H1-HeLa cell culture assay (XTT cell protection, EC50), HRV-14; format: cell-based, human rhinovirus (HRV) serotype-14 in H1-HeLa cells; settings: Rhinovirus B, HRV14, H1-HeLa
Outline: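 H1-HeLa cells were infected with HRV-14 at m.o.i. 0.13, or mock-infected, and incubated with compound for two days. Cell protection was read by XTT/PMS formazan absorbance at 450/650 nm to give EC50. CC50 came from mock-infected cells, and TI = CC50/EC50.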

[1] = system: Coxsackievirus type A-21 (CAV-21); test: Anticoxsackieviral cell culture assay (XTT, EC50), CAV-21; format: cell-based, coxsackievirus A-21 in H1-HeLa cells; settings: Coxsackievirus
Protocol: (§1) Anticoxsackieviral Cell Culture Assay:
(§2) Coxsackievirus types A-21 (CAV-21) and B3 (CVB3) were purchased from American Type Culture Collection (ATCC, Rockville, Md.). Virus stocks were propagated and antiviral assays were performed in H1-HeLa cells (ATCC). Cells were grown in minimal essential medium with 10% fetal bovine serum (Life Technologies, Gaithersburg, Md.). The ability of the compounds of this invention to protect cells against either CAV-21 or CVB3 infection was measured by the XTT dye reduction method. This method is described in Weislow et al., J. Natl. Cancer Inst. (1989), vol. 81, 577-586. H1-HeLa cells were infected with CAV-21 or CVB3 at a multiplicity of infection (m.o.i.) of 0.025 or 0.075, respectively, or mock-infected with medium only. H1-HeLa cells were plated at 4×10^4 cells per well in a 96-well plate and incubated with appropriate concentrations of the test compound. One day (CVB3) or two days (CAV-21) later, XTT/PMS was added to test plates and the amount of formazan produced was quantified spectrophotometrically at 450/650 nm. […] The therapeutic index (TI) was calculated by dividing the CC50 by the EC50.

[2] = system: Coxsackievirus type B3 (CVB3); test: Anticoxsackieviral cell culture assay (XTT, EC50), CVB3; format: cell-based, coxsackievirus B3 in H1-HeLa cells
Protocol: as §1, §2

coxsackievirus B2 (CVB2) [3] = test: Anticoxsackieviral cell culture assay (EC50), CVB2; format: cell-based; settings: Enterovirus B
[4] = target: T1, Recombinant rhinovirus 3C protease, serotype 14 (Human rhinovirus 14, UniProt P03303); test: Inhibition of rhinovirus 3C protease (FRET assay, kobs/[I]), serotype 14; format: biochemical
T1 construct: Recombinant rhinovirus 3C proteases; made in house
Outline: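 Enzyme-start FRET assay with ~1 μM DABCYL/EDANS peptide substrate and 50-100 nM recombinant protease in 50 mM tris pH 7.6, 1 mM EDTA, 2% DMSO. Cleavage followed as fluorescence increase; kobs/[I] derived from progress curves.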

coxsackievirus B2 (CVB2) [5] = test: Antiviral cell culture assay (EC50), coxsackievirus B2; format: cell-based; settings: Enterovirus B
coxsackievirus B5 (CVB5) = test: Antiviral cell culture assay (EC50), coxsackievirus B5; format: cell-based; settings: Enterovirus B
echovirus 9 (ECHO-9) = test: Antiviral cell culture assay (EC50), echovirus 9; format: cell-based; settings: Enterovirus B; ECHO9
[6] = Cytotoxicity (CC50), cell line not stated; format: cell-based
[7] = system: Echovirus type 11 (ECHO 11); test: Anti-echoviral cell culture assay (XTT, EC50), ECHO 11; format: cell-based, echovirus 11 in MRC-5 cells; settings: Enterovirus B
Protocol: Anti-Echoviral and Anti-Enteroviral Cell Culture Assays
Echovirus type 11 (ECHO 11) was purchased from ATCC (Rockville, Md.). Virus stocks were propagated and antiviral assays were performed in MRC-5 cells (ATCC). Cells were grown in minimal essential medium with 10% fetal bovine serum (Life Technologies, Gaithersburg, Md.). The ability of the compounds of this invention to protect cells against ECHO 11 infection was measured by the XTT dye reduction method (Weislow et al., J. Natl. Cancer Inst. (1989), vol. 81, 577-586). MRC-5 cells were infected with ECHO 11 at an m.o.i. of 0.003 or 0.004, respectively, or mock-infected with medium only. Infected or uninfected cells were added at 1×10^4 cells per well and incubated with appropriate concentrations of compound. Four days later, XTT/PMS was added to test plates, and the amount of formazan produced was quantified spectrophotometrically at 450/650 nm. […] The therapeutic index (TI) was calculated by dividing the CC50 by the EC50. Activity of the compounds against enterovirus type 70 (EV 70) may be measured by the same assay as described above in this section. Enterovirus type 70 (EV 70) may be obtained from the American Type Culture Collection ATCC (Rockville, Md.).

MRC-5 cells = test: Cytotoxicity (CC50) in uninfected MRC-5 cells, XTT dye reduction; format: cell-based, human
Outline: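 MRC-5 cells in MEM with 10% FBS, infected at m.o.i. 0.003 or 0.004 or mock-infected, seeded 1×10^4 cells/well with compound for four days. Protection and cytotoxicity read by XTT/PMS formazan at 450/650 nm. TI = CC50/EC50.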

echovirus 6 (ECHO-6) = test: Anti-echoviral cell culture assay (EC50), ECHO-6; format: cell-based; settings: Enterovirus B
[8] = pH 7.6, HRV-14 3C protease, read-out: kobs/[I] (3C protease inhibition activity)
[9] = pH 7.6, HRV-14, read-out: kobs/[I] (3C protease inhibition activity)

T1 sequence (P03303 1538-1719): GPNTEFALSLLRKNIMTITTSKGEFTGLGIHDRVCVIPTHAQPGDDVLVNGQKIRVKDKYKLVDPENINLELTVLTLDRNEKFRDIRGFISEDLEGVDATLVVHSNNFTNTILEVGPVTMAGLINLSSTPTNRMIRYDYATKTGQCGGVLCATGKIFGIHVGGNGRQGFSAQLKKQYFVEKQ

SMILES: Cc1cc(C(=O)Nc2cccn([C@@H](Cc3ccc(F)c(F)c3)C(=O)N[C@H](/C=C/C(=O)OC(C)C)C[C@@H]3CCNC3=O)c2=O)no1 [Compound 48, trans-(2′S,3″″″S,4S)-4-[3′-(3″,4″-Difluorophenyl)-2′-(3′″-{[1″″-(5′″″-methylisoxazol-3′″″-yl)methanoyl]amino}-2″″-oxo-2″″H-pyridin-1″″-yl)propanoylamino]-5-(2″″″-oxopyrrolidin-3″″″-yl)pent-2-enoic Acid Isopropyl Ester]
- EC50 (HRV-14): 3 nM
- EC50 [1]: 1120 nM
- EC50 [2]: 187 nM
- EC50 (coxsackievirus B2 (CVB2) [3]): 162 nM

SMILES: CC[C@@H](C(=O)N[C@H](/C=C/C(=O)OCc1ccccc1)C[C@@H]1CCNC1=O)n1cccc(NC(=O)c2cc(C)on2)c1=O [Compound 62, trans-(2′S,3′″″S,4S)-4-[2′-(3″-{[1′″-(5″″-Methylisoxazol-3″″-yl)methanoyl]amino}-2′″oxo-2′″H-pyridin-1′″-yl)butanoylamino]-5-(2′″″-oxopyrrolidin-3′″″-yl)pent-2-enoic Acid Benzyl Ester]
- kinact/KI [4, 8]: 210000 M⁻¹ s⁻¹
- EC50 (HRV-14): 61 nM
- EC50 ([1]; H1-HeLa): 298 nM
- EC50 ([2]; H1-HeLa): 15 nM
- EC50 (coxsackievirus B2 (CVB2) [5]): 16 nM
- EC50 (coxsackievirus B5 (CVB5)): 20 nM
- EC50 (echovirus 9 (ECHO-9)): 4 nM
- CC50 ([6]; CVB2): > 10000 nM
- CC50 ([6]; CVB5): > 10000 nM
- CC50 ([6]; ECHO9): > 10000 nM

SMILES: C#CC[C@@H](C(=O)N[C@H](/C=C/C(=O)OC1CCC1)C[C@@H]1CCNC1=O)n1cccc(NC(=O)c2cc(C)on2)c1=O [Compound 53, trans-(2′S,3′″″S,4S)-4-[2′-(3″-{[1′″-(5″″-Methylisoxazol-3″″-yl)methanoyl]amino}-2′″-oxo-2′″H-pyridin-1′″-yl)pent-4″-ynoylamino]-5-(2′″″-oxopyrrolidin-3′″″-yl)pent-2-enoic Acid Cyclobutyl Ester]
- kinact/KI [4, 9]: 207000 M⁻¹ s⁻¹
- EC50 (HRV-14): 40 nM
- EC50 [1]: 476 nM
- EC50 [2]: 156 nM
- EC50 (coxsackievirus B2 (CVB2) [3]): 154 nM

SMILES: C#CC[C@@H](C(=O)N[C@H](/C=C/C(=O)OC(C)(C)C)C[C@@H]1CCNC1=O)n1cccc(NC(=O)c2cc(C)on2)c1=O [Compound 41, trans-(2′S,3′″″S,4S)-4-[2′-(3″-{[1′″-(5″″-Methylisoxazol-3″″-yl)methanoyl]amino}-2′″-oxo-2′″H-pyridin-1′″-yl)pent-4″-ynoylamino]-5-(2′″″-oxopyrrolidin-3′″″-yl)pent-2-enoic Acid tert-Butyl Ester]
- kinact/KI [4, 9]: 60500 M⁻¹ s⁻¹
- EC50 (HRV-14): 62 nM
- EC50 [1]: 593 nM
- EC50 [2]: 117 nM
- EC50 [7]: 186 nM
- CC50 (MRC-5 cells; line of ECHO-6): > 10000 nM
- CC50 (MRC-5 cells; line of ECHO-9): > 10000 nM
- melting point: 195 °C (dec.)
- EC50 (coxsackievirus B2 (CVB2) [3]): 213 nM
- EC50 (echovirus 6 (ECHO-6)): 147 nM

SMILES: CCOC(=O)/C=C/[C@H](C[C@@H]1CCNC1=O)NC(=O)[C@H](CC)n1cccc(NC(=O)c2cc(C)on2)c1=O [Compound 26, trans-(2′S,3″″S,4S)-4-(2′-{3″-[(5′″-Methylisoxazole-3′″-carbonyl)amino]-2″-oxo-2″H-pyridin-1″-yl}butyrylamino)-5-(2″″-oxopyrrolidin-3″″-yl)pent-2-enoic Acid Ethyl Ester]
- kinact/KI [4, 9]: 170000 M⁻¹ s⁻¹
- EC50 (HRV-14): 55 nM
- EC50 [1]: 121 nM
- EC50 [2]: 16 nM
- EC50 [7]: 36 nM
- CC50 (MRC-5 cells; line of ECHO-6): > 10000 nM
- CC50 (MRC-5 cells; line of ECHO-9): > 10000 nM
- EC50 (coxsackievirus B2 (CVB2) [3]): 55 nM
- EC50 (echovirus 6 (ECHO-6)): 17 nM

SMILES: CCOC(=O)/C=C/[C@H](C[C@@H]1CCNC1=O)NC(=O)[C@H](Cc1ccc(F)c(F)c1)n1cccc(NC(=O)c2cc(C)on2)c1=O [Compound 33, trans-(2′S,3′″″S,4S)-4-(3′-(3″,4″-Difluorophenyl)-2′-{3′″-[(5″″-methylisoxazole-3″″-carbonyl)amino]-2′″-oxo-2′″H-pyridin-1′″-yl}propionylamino)-5-(2′″″-oxopyrrolidin-3′″″-yl)pent-2-enoic Acid Ethyl Ester]
- kinact/KI [4, 9]: 1.8e+06 M⁻¹ s⁻¹
- EC50 (HRV-14): 1 nM
- EC50 [1]: 4 nM
- EC50 [2]: 3 nM
- EC50 [7]: 16 nM
- CC50 (MRC-5 cells; line of ECHO-6): > 10000 nM
- CC50 (MRC-5 cells; line of ECHO-9): > 10000 nM
- EC50 (coxsackievirus B2 (CVB2) [3]): 15 nM
- EC50 (echovirus 6 (ECHO-6)): 15 nM

SMILES: C#CC[C@@H](C(=O)N[C@H](/C=C/C(=O)OCC)C[C@@H]1CCNC1=O)n1cccc(NC(=O)c2cc(C)on2)c1=O [Compound 31, trans-(2′S,3″″S,4S)-4-(2′-{3″-[(5′″-Methyl-isoxazole-3′″-carbonyl)amino]-2″-oxo-2″H-pyridin-1″-yl}pent-4′-ynoyl-amino)-5-(2″″-oxopyrrolidin-3″″-yl)pent-2-enoic Acid Ethyl Ester]
- kinact/KI ([4]; pH 7.6, read-out: kobs/[I] (3C protease inhibition activity)): 223000 M⁻¹ s⁻¹
- EC50 (HRV-14): 22 nM
- EC50 [1]: 161 nM
- EC50 [2]: 24 nM
- EC50 [7]: 13 nM
- CC50 (MRC-5 cells; line of ECHO-9): > 10000 nM
- CC50 (MRC-5 cells; line of ECHO-11): > 10000 nM
- EC50 (coxsackievirus B2 (CVB2) [3]): 57 nM
- EC50 (echovirus 6 (ECHO-6)): 21 nM

SMILES: C#CC[C@@H](C(=O)N[C@H](/C=C/C(=O)OCc1ccccc1)C[C@@H]1CCNC1=O)n1cccc(NC(=O)c2cc(C)on2)c1=O [Compound 63, trans-(2′S,3′″″S,4S)-4-[2′-(3″-{[1′″-(5″″-Methylisoxazol-3″″-yl)methanoyl]amino}-2′″-oxo-2′″H-pyridin-1′″-yl)pent-4″-ynoylamino]-5-(2′″″-oxopyrrolidin-3′″″-yl)pent-2-enoic Acid Benzyl Ester]
- kinact/KI [4, 8]: 300000 M⁻¹ s⁻¹
- EC50 (HRV-14): 51 nM
- EC50 ([1]; H1-HeLa): 153 nM
- EC50 ([2]; H1-HeLa): 14 nM
- EC50 (coxsackievirus B2 (CVB2) [5]): 12 nM
- EC50 (coxsackievirus B5 (CVB5)): 10 nM
- EC50 (echovirus 9 (ECHO-9)): 2 nM
- CC50 ([6]; CVB2): > 10000 nM
- CC50 ([6]; CVB5): > 10000 nM
- CC50 ([6]; ECHO9): > 10000 nM
